The values that follow are results of earlier work, collected in US20220409609A1, “INJECTABLE FORMULATION OF HYDROXYCHLOROQUINE” (Luckwel Pharmaceuticals Inc., priority 2021, published 2022).

Counter-ions that a name gives are not always drawn.

The conditions of data set [1]: water at 25° C.

In the case of `CCN(CCO)CCCC(C)Nc1ccnc2cc(Cl)ccc12` (racemic) [Hydroxychloroquine sulfate, 2-[[4-[(7-Chloro-4-quinolyl)amino]pentyl]ethylamino] ethanol sulfate (1:1)], the “time at which hydroxychloroquine concentrations peak after dosing” value is 3 to 4 h. Further, the solubility in water result in data set [1] is on record as “freely soluble”.
